From patent publication US20180258123A1, “Suppressors of Premature Termination Codons as Therapeutics and Methods for Their Use” (The University of British Columbia, priority 2015, published 2018)

How the values were obtained:
[1] = cited from earlier work
[2] = Toxicity observed in the in vivo read-through study; settings: 400 mg/kg intraperitoneal; mice sacrificed shortly after administration
Protocol: Methods for FIG. 8: Two million NCI-H1299 human non-small cell lung carcinoma cells stably expressing a TP53 expression construct bearing the R213X (TGA) nonsense mutation were implanted subcutaneously on the lower back of immunocompromised NRG (NOD-Rag1^null IL2rg^null) mice. […] 48 hours after the last injection, the mice were sacrificed and the amounts of truncated p53 and full-length p53 were determined by western analysis. […] Vinculin was used as a protein loading control.

[3] = tested on: HDQ-P1 cells, full-length p53; experiment: p53 read-through assay with steroids (western blotting, FIG. 4); assay type: cell-based, human
Protocol: HDQ-P1 cells were seeded at 100,000 cells per well of TC-treated 6-well plates. The next day, the medium was replaced with fresh medium containing compounds to be tested and were incubated for 48 to 96 h. The medium was removed by aspiration, cell monolayers were rinsed with 1 ml ice-cold PBS. Cells were lysed in 80 μl lysis buffer (20 mM Tris-HCl pH 7.5, 150 mM NaCl, 1 mM EDTA, 1 mM EGTA, 1% (v/v) Triton […], 2.5 mM sodium pyrophosphate, 1 mM beta-glycerophosphate supplemented with fresh 1 mM Na3VO4, 1 mM dithiothreitol and 1× complete protease inhibitor cocktail (Roche Molecular BiochemicalsTM)). Lysates were pre-cleared by centrifugation at 18,000 g for 15 min at 4° C. Supernatants were collected, protein was quantitated using the Bradford assay and lysates were adjusted to 1 mg/ml protein. Capillary electrophoresis and western analysis conditions were carried out with manufacturer's reagents according to the user manual (ProteinSimple WESTM). Briefly, 5.6 μl of cell lysate was mixed with 1.4 μl fluorescent master mix and heated at 95° C. for 5 min. The samples, blocking reagent, wash buffer, DO-1 p53 antibody (0.5 μg/ml) and vinculin antibody (1:2000, R&D clone 728526), secondary antibody and chemiluminescent substrate were dispensed into the microplate provided by the manufacturer. […] The data was analyzed with inbuilt CompassTM software (ProteinsimpleTM). […]

In the case of Gentamicin [reference compound], the nephrotoxicity and ototoxicity ([1]; in vivo) is given as “nephrotoxic and ototoxic” and the toxicity [2] is given as “induced acute toxicity”.

With `CC(=O)O[C@]1(C(C)=O)CC[C@H]2[C@@H]3C[C@H](C)C4=CC(=O)CC[C@]4(C)[C@H]3CC[C@@]21C` [Medroxy pro, Medroxyprogesterone acetate] the “read-through activity of steroid alone” value [3] was “no read-through activity”.

For `CN[C@@H]1[C@@H](O)[C@@H](O[C@@H]2[C@@H](O)[C@H](O[C@H]3O[C@H]([C@@H](C)N)CC[C@H]3N)[C@@H](N)C[C@H]2N)OC[C@]1(C)O` [Gentamicin C2], the “nephrotoxicity of the major gentamicins” value ([1]; Kohlhepp S. J. et al. 1984) is listed as “nephrotoxicity was caused mainly by C2”.
